# Data from PubChem BioAssay (NCI).
#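 Cells were grown in 96-well plates and exposed to each compound for 48 hours at five concentrations; endpoints were interpolated linearly between bracketing concentrations, or set to the highest concentration if not reached. Abbreviation: GI50, concentration required for 50% inhibition of growth. TGI: concentration producing complete growth inhibition.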
# Key:
# Test in all cases: NCI anticancer screen, dose series, 48 h
# A498 renal = tested on: A498 renal
# ACHN renal = tested on: ACHN renal
# BT-549 breast = tested on: BT-549 breast
# CAKI-1 renal = tested on: CAKI-1 renal
# CCRF-CEM leukemia = tested on: CCRF-CEM leukemia
# COLO 205 colon = tested on: COLO 205 colon
# DU-145 prostate = tested on: DU-145 prostate
# EKVX NSCLC = tested on: EKVX NSCLC
# HCC-2998 colon = tested on: HCC-2998 colon
# HCT-116 colon = tested on: HCT-116 colon
# HCT-15 colon = tested on: HCT-15 colon
# HL-60(TB) leukemia = tested on: HL-60(TB) leukemia
# HOP-62 NSCLC = tested on: HOP-62 NSCLC
# HOP-92 NSCLC = tested on: HOP-92 NSCLC
# HS 578T breast = tested on: HS 578T breast
# HT29 colon = tested on: HT29 colon
# IGROV1 ovarian = tested on: IGROV1 ovarian
# K-562 leukemia = tested on: K-562 leukemia
# KM12 colon = tested on: KM12 colon
# LOX IMVI melanoma = tested on: LOX IMVI melanoma
# M14 melanoma = tested on: M14 melanoma
# MALME-3M melanoma = tested on: MALME-3M melanoma
# MCF7 breast = tested on: MCF7 breast
# MDA-MB-231 breast = tested on: MDA-MB-231 breast
# MDA-MB-435 = tested on: MDA-MB-435
# MOLT-4 leukemia = tested on: MOLT-4 leukemia
# NCI-H226 lung = tested on: NCI-H226 lung
# NCI-H23 lung = tested on: NCI-H23 lung
# NCI-H460 lung = tested on: NCI-H460 lung
# NCI-H522 lung = tested on: NCI-H522 lung
# NCI/ADR-RES ovarian = tested on: NCI/ADR-RES ovarian
# OVCAR-3 ovarian = tested on: OVCAR-3 ovarian
# OVCAR-4 ovarian = tested on: OVCAR-4 ovarian
# OVCAR-5 ovarian = tested on: OVCAR-5 ovarian
# OVCAR-8 ovarian = tested on: OVCAR-8 ovarian
# PC-3 prostate = tested on: PC-3 prostate
# RPMI-8226 leukemia = tested on: RPMI-8226 leukemia
# RXF 393 renal = tested on: RXF 393 renal
# SF-268 CNS = tested on: SF-268 CNS
# SF-295 CNS = tested on: SF-295 CNS
# SF-539 CNS = tested on: SF-539 CNS
# SK-MEL-2 melanoma = tested on: SK-MEL-2 melanoma
# SK-MEL-28 melanoma = tested on: SK-MEL-28 melanoma
# SK-MEL-5 melanoma = tested on: SK-MEL-5 melanoma
# SK-OV-3 ovarian = tested on: SK-OV-3 ovarian
# SN12C renal = tested on: SN12C renal
# SNB-19 CNS = tested on: SNB-19 CNS
# SNB-75 CNS = tested on: SNB-75 CNS
# SR leukemia = tested on: SR leukemia
# SW-620 colon = tested on: SW-620 colon
# T-47D breast = tested on: T-47D breast
# TK-10 renal = tested on: TK-10 renal
# U251 CNS = tested on: U251 CNS
# UACC-257 melanoma = tested on: UACC-257 melanoma
# UACC-62 melanoma = tested on: UACC-62 melanoma
# UO-31 renal = tested on: UO-31 renal
smiles,measurement,setting,value
O=C1c2cccnc2C(=O)c2c1c(C(=O)OCCN1CCCCC1)c1ccccn21,GI50,A498 renal,65 nM
same,TGI,A498 renal,13100 nM
same,GI50,ACHN renal,12.9 nM
same,TGI,ACHN renal,53.4 nM
same,GI50,BT-549 breast,152 nM
same,TGI,BT-549 breast,2160 nM
same,GI50,CAKI-1 renal,26.9 nM
same,TGI,CAKI-1 renal,1530 nM
same,GI50,CCRF-CEM leukemia,294 nM
same,TGI,CCRF-CEM leukemia,5000 nM
same,GI50,COLO 205 colon,48.1 nM
same,TGI,COLO 205 colon,169 nM
same,GI50,DU-145 prostate,18.9 nM
same,TGI,DU-145 prostate,714 nM
same,GI50,EKVX NSCLC,851 nM
same,TGI,EKVX NSCLC,7520 nM
same,GI50,HCC-2998 colon,78.8 nM
same,TGI,HCC-2998 colon,1570 nM
same,GI50,HCT-116 colon,41 nM
same,TGI,HCT-116 colon,1950 nM
same,GI50,HCT-15 colon,41.6 nM
same,TGI,HCT-15 colon,984 nM
same,GI50,HL-60(TB) leukemia,363 nM
same,TGI,HL-60(TB) leukemia,3240 nM
same,GI50,HOP-62 NSCLC,5.54 nM
same,TGI,HOP-62 NSCLC,31.3 nM
same,GI50,HOP-92 NSCLC,42.6 nM
same,TGI,HOP-92 NSCLC,285 nM
same,GI50,HS 578T breast,72.3 nM
same,TGI,HS 578T breast,376 nM
same,GI50,HT29 colon,120 nM
same,TGI,HT29 colon,1710 nM
same,GI50,IGROV1 ovarian,145 nM
same,TGI,IGROV1 ovarian,2940 nM
same,GI50,K-562 leukemia,48.4 nM
same,TGI,K-562 leukemia,1670 nM
same,GI50,KM12 colon,160 nM
same,TGI,KM12 colon,9020 nM
same,GI50,LOX IMVI melanoma,17.2 nM
same,TGI,LOX IMVI melanoma,95 nM
same,GI50,M14 melanoma,14.7 nM
same,TGI,M14 melanoma,65.6 nM
same,GI50,MALME-3M melanoma,84.7 nM
same,TGI,MALME-3M melanoma,424 nM
same,GI50,MCF7 breast,5.75 nM
same,TGI,MCF7 breast,76.7 nM
same,GI50,MDA-MB-231 breast,731 nM
same,TGI,MDA-MB-231 breast,12600 nM
same,GI50,MDA-MB-435,80.4 nM
same,TGI,MDA-MB-435,829 nM
same,GI50,MOLT-4 leukemia,162 nM
same,TGI,MOLT-4 leukemia,2210 nM
same,GI50,NCI-H226 lung,13.5 nM
same,TGI,NCI-H226 lung,86.7 nM
same,GI50,NCI-H23 lung,5.7 nM
same,TGI,NCI-H23 lung,29.1 nM
same,GI50,NCI-H460 lung,5 nM
same,TGI,NCI-H460 lung,12.8 nM
same,GI50,NCI-H522 lung,18 nM
same,TGI,NCI-H522 lung,99.2 nM
same,GI50,NCI/ADR-RES ovarian,33.1 nM
same,TGI,NCI/ADR-RES ovarian,1070 nM
same,GI50,OVCAR-3 ovarian,172 nM
same,TGI,OVCAR-3 ovarian,2810 nM
same,GI50,OVCAR-4 ovarian,655 nM
same,TGI,OVCAR-4 ovarian,2300 nM
same,GI50,OVCAR-5 ovarian,198 nM
same,TGI,OVCAR-5 ovarian,2020 nM
same,GI50,OVCAR-8 ovarian,34.4 nM
same,TGI,OVCAR-8 ovarian,1020 nM
same,GI50,PC-3 prostate,160 nM
same,TGI,PC-3 prostate,9590 nM
same,GI50,RPMI-8226 leukemia,119 nM
same,TGI,RPMI-8226 leukemia,950 nM
same,GI50,RXF 393 renal,61.5 nM
same,TGI,RXF 393 renal,235 nM
same,GI50,SF-268 CNS,34.5 nM
same,TGI,SF-268 CNS,365 nM
same,GI50,SF-295 CNS,31.1 nM
same,TGI,SF-295 CNS,200 nM
same,GI50,SF-539 CNS,17.4 nM
same,TGI,SF-539 CNS,155 nM
same,GI50,SK-MEL-2 melanoma,90.9 nM
same,TGI,SK-MEL-2 melanoma,224 nM
same,GI50,SK-MEL-28 melanoma,210 nM
same,TGI,SK-MEL-28 melanoma,2190 nM
same,GI50,SK-MEL-5 melanoma,25.1 nM
same,TGI,SK-MEL-5 melanoma,113 nM
same,GI50,SK-OV-3 ovarian,12.4 nM
same,TGI,SK-OV-3 ovarian,51 nM
same,GI50,SN12C renal,13.8 nM
same,TGI,SN12C renal,479 nM
same,GI50,SNB-19 CNS,13 nM
same,TGI,SNB-19 CNS,498 nM
same,GI50,SNB-75 CNS,18.9 nM
same,TGI,SNB-75 CNS,188 nM
same,GI50,SR leukemia,6.98 nM
same,TGI,SR leukemia,82.8 nM
same,GI50,SW-620 colon,18.7 nM
same,TGI,SW-620 colon,362 nM
same,GI50,T-47D breast,515 nM
same,TGI,T-47D breast,7400 nM
same,GI50,TK-10 renal,97.8 nM
same,TGI,TK-10 renal,430 nM
same,GI50,U251 CNS,18.3 nM
same,TGI,U251 CNS,179 nM
same,GI50,UACC-257 melanoma,87.8 nM
same,TGI,UACC-257 melanoma,395 nM
same,GI50,UACC-62 melanoma,12.1 nM
same,TGI,UACC-62 melanoma,69 nM
same,GI50,UO-31 renal,38.9 nM
same,TGI,UO-31 renal,1670 nM
